In ChEMBL document CHEMBL5357027, “Annonaceous Acetogenins Synergistically Inhibit Hepatocellular Carcinoma with Sorafenib” (J Nat Prod, 2024):
The source made the active and inactive calls. The rule behind the calls is not given here.

Assays:
HepG2 [1] = assay: Cytotoxicity against human HepG2 cells assessed as cell growth inhibition incubated for 48 hrs by MTT assay; assay type: functional, cell-based; conditions: HepG2, 48 h
Huh-7 [2] = assay: Cytotoxicity against human Huh-7 cells assessed as cell growth inhibition incubated for 48 hrs by MTT assay; assay type: functional, cell-based; conditions: Huh-7, 48 h
MHCC97H [3] = assay: Cytotoxicity against human MHCC97H cells assessed as cell growth inhibition incubated for 48 hrs by MTT assay; assay type: functional, cell-based
HCCLM3 [4] = assay: Cytotoxicity against human HCCLM3 cells assessed as cell growth inhibition incubated for 48 hrs by MTT assay; assay type: functional, cell-based; conditions: HCCLM3, 48 h
HCCLM3 [5] = assay: Inhibition of mitochondrial respiratory chain complex I in human HCCLM3 incubated for 24 hrs; assay type: cell-based
HepG2 [6] = assay: Synergistic cytotoxicity against human HepG2 cells assessed as cell growth inhibition by measuring synergy score at 1 to 16 uM incubated for 48 hrs in presence of sorafenib at 1 to 16 uM by MTT assay; assay type: functional; conditions: dose 1-16 µM
Huh-7 [7] = assay: Synergistic cytotoxicity against human Huh-7 cells assessed as cell growth inhibition by measuring synergy score at 1 to 16 uM incubated for 48 hrs in presence of sorafenib at 1 to 16 uM by MTT assay; assay type: functional; conditions: dose 1-16 µM
MHCC97H [8] = assay: Synergistic cytotoxicity against human MHCC97H cells assessed as cell growth inhibition by measuring synergy score at 1 to 16 uM incubated for 48 hrs in presence of sorafenib at 1 to 16 uM by MTT assay; assay type: functional; conditions: dose 1-16 µM
HCCLM3 [9] = assay: Synergistic cytotoxicity against human HCCLM3 cells assessed as cell growth inhibition by measuring synergy score at 1 to 16 uM incubated for 48 hrs in presence of sorafenib at 1 to 16 uM by MTT assay; assay type: functional; conditions: dose 1-16 µM
HepG2 [10] = assay: Synergistic inhibition of mitochondrial function in human HepG2 cells assessed as reduction in intracellular ATP level at 8 uM incubated for 48 hrs in presence of 16 uM sorafenib; assay type: functional, cell-based
Huh-7 [11] = assay: Synergistic inhibition of mitochondrial function in human Huh-7 cells assessed as reduction in intracellular ATP level at 8 uM incubated for 48 hrs in presence of 16 uM sorafenib; assay type: functional, cell-based
MHCC97H [12] = assay: Synergistic inhibition of mitochondrial function in human MHCC97H cells assessed as reduction in intracellular ATP level at 8 uM incubated for 48 hrs in presence of 16 uM sorafenib; assay type: functional, cell-based
HCCLM3 [13] = assay: Synergistic inhibition of mitochondrial function in human HCCLM3 cells assessed as reduction in intracellular ATP level at 8 uM incubated for 48 hrs in presence of 16 uM sorafenib; assay type: functional, cell-based
HCCLM3 [14] = assay: Induction of apoptosis in human HCCLM3 cells assessed as necrotic cells at 4 uM incubated for 48 hrs by Annexin V/FITC-PI staining based flow cytometry (reference value: 3.33%); assay type: functional
HCCLM3 [15] = assay: Induction of apoptosis in human HCCLM3 cells assessed as late apoptotic cells at 4 uM incubated for 48 hrs by Annexin V/FITC-PI staining based flow cytometry (reference value: 0.07%); assay type: functional
HCCLM3 [16] = assay: Induction of apoptosis in human HCCLM3 cells assessed as early apoptotic cells at 4 uM incubated for 48 hrs by Annexin V/FITC-PI staining based flow cytometry (reference value: 0.05%); assay type: functional
HCCLM3 [17] = assay: Induction of apoptosis in human HCCLM3 cells assessed as viable cells at 4 uM incubated for 48 hrs by Annexin V/FITC-PI staining based flow cytometry (reference value: 96.55%); assay type: functional; conditions: read-out: Activity
HCCLM3 [18] = assay: Induction of apoptosis in human HCCLM3 cells assessed as viable cells at 4 uM incubated for 48 hrs in presence of 4uM sorafenib by Annexin V/FITC-PI staining based flow cytometry (reference value: 96.55%); assay type: functional; conditions: read-out: Activity
HCCLM3 [19] = assay: Induction of apoptosis in human HCCLM3 cells assessed as early apoptotic cells at 4 uM incubated for 48 hrs in presence of 4uM sorafenib by Annexin V/FITC-PI staining based flow cytometry (reference value: 0.05%); assay type: functional
HCCLM3 [20] = assay: Induction of apoptosis in human HCCLM3 cells assessed as late apoptotic cells at 4 uM incubated for 48 hrs in presence of 4uM sorafenib by Annexin V/FITC-PI staining based flow cytometry (reference value: 0.07%); assay type: functional
HCCLM3 [21] = assay: Induction of apoptosis in human HCCLM3 cells assessed as necrotic cells at 4 uM incubated for 48 hrs in presence of 4uM sorafenib by Annexin V/FITC-PI staining based flow cytometry (reference value: 3.33%); assay type: functional
HCCLM3 [22] = assay: Induction of apoptosis in human HCCLM3 cells assessed as apoptotic ratio at 4 uM incubated for 48 hrs in presence of 4uM sorafenib by Annexin V/FITC-PI staining based flow cytometry relative to control; assay type: functional
HCCLM3 [23] = assay: Antitumor activity against human HCCLM3 cells xenografted in nude mouse assessed as decrease in tumor volume at 4 to 8 mg/kg, PO measured every other day for 21 days; assay type: functional, organism-based; conditions: dose 4-8 mg/kg, time 21.0 day
HCCLM3 [24] = assay: Synergistic antitumor activity against human HCCLM3 cells xenografted in nude mouse assessed as decrease in tumor volume at 4 to 8 mg/kg, PO in presence of 32 mg/kg sorafenib measured every other day for 21 days; assay type: functional, organism-based; conditions: dose 4-8 mg/kg, time 21.0 day
HCCLM3 [25] = assay: Synergistic antitumor activity against human HCCLM3 cells xenografted in nude mouse assessed as decrease in tumor weight at 4 to 8 mg/kg, PO in presence of 32 mg/kg sorafenib measured every other day for 21 days; assay type: functional, organism-based; conditions: dose 4-8 mg/kg, time 21.0 day
HCCLM3 [26] = assay: Synergistic antitumor activity against human HCCLM3 cells xenografted in nude mouse assessed as induction of aPOptosis in tumor at 4 to 8 mg/kg, PO in presence of 32 mg/kg sorafenib and measured for 21 days by tunel staining based immunohistochemical analysis; assay type: functional, organism-based; conditions: dose 4-8 mg/kg, time 21.0 day
HepG2 [27] = assay: Inhibition of mitochondrial function in human HepG2 cells assessed as reduction in ATP production at 8 uM incubated for 48 hrs; assay type: functional, cell-based
Huh-7 [28] = assay: Inhibition of mitochondrial function in human Huh-7 cells assessed as reduction in ATP production at 8 uM incubated for 48 hrs; assay type: functional, cell-based
MHCC97H [29] = assay: Inhibition of mitochondrial function in human MHCC97H cells assessed as reduction in ATP production at 8 uM incubated for 48 hrs; assay type: functional, cell-based
HCCLM3 [30] = assay: Inhibition of mitochondrial function in human HCCLM3 cells assessed as reduction in ATP production at 8 uM incubated for 48 hrs; assay type: functional, cell-based
[31] = Toxicity in nude mouse xenografted with human HCCLM3 cells assessed as decrease in body weight at 4 to 8 mg/kg, PO measured every other day for 21 days; assay type: organism-based; conditions: in vivo, 504 h, dose 4-8 mg/kg, time 21 day
[32] = Toxicity in nude mouse xenografted with human HCCLM3 cells assessed as decrease in body weight at 1 to 8 mg/kg, PO in presence of sorafenib measured every other day for 21 days; assay type: organism-based; conditions: in vivo, 504 h, dose 1-8 mg/kg, time 21 day
[33] = Toxicity in nude mouse xenografted with human HCCLM3 cells assessed as heart damage at 4 to 8 mg/kg, PO measured for 21 days by H and E staining based; assay type: organism-based; conditions: in vivo, 504 h, dose 4-8 mg/kg, time 21 day
[34] = Toxicity in nude mouse xenografted with human HCCLM3 cells assessed as liver damage at 4 to 8 mg/kg, PO measured for 21 days by H and E staining based analysis; assay type: organism-based; conditions: in vivo, 504 h, dose 4-8 mg/kg, time 21 day
[35] = Toxicity in nude mouse xenografted with human HCCLM3 cells assessed as kidney damage at 4 to 8 mg/kg, PO measured for 21 days by H and E staining based analysis; assay type: organism-based; conditions: in vivo, 504 h, dose 4-8 mg/kg, time 21 day
[36] = Toxicity in nude mouse xenografted with human HCCLM3 cells assessed as spleen damage at 4 to 8 mg/kg, PO measured for 21 days by H and E staining based analysis; assay type: organism-based; conditions: in vivo, 504 h, dose 4-8 mg/kg, time 21 day
[37] = Toxicity in nude mouse xenografted with human HCCLM3 cells assessed as lung damage at 4 to 8 mg/kg, PO measured for 21 days by H and E staining based analysis; assay type: organism-based; conditions: in vivo, 504 h, dose 4-8 mg/kg, time 21 day
[38] = Toxicity in nude mouse xenografted with human HCCLM3 cells assessed as heart damage at 1 to 8 mg/kg, PO in presence of sorafenib measured for 21 days by H and E staining based; assay type: organism-based; conditions: in vivo, 504 h, dose 1-8 mg/kg, time 21 day
[39] = Toxicity in nude mouse xenografted with human HCCLM3 cells assessed as liver damage at 1 to 8 mg/kg, PO in presence of sorafenib measured for 21 days by H and E staining based analysis; assay type: organism-based; conditions: in vivo, 504 h, dose 1-8 mg/kg, time 21 day
[40] = Toxicity in nude mouse xenografted with human HCCLM3 cells assessed as kidney damage at 1 to 8 mg/kg, PO in presence of sorafenib measured for 21 days by H and E staining based analysis; assay type: organism-based; conditions: in vivo, 504 h, dose 1-8 mg/kg, time 21 day
[41] = Toxicity in nude mouse xenografted with human HCCLM3 cells assessed as spleen damage at 1 to 8 mg/kg, PO in presence of sorafenib measured for 21 days by H and E staining based analysis; assay type: organism-based; conditions: in vivo, 504 h, dose 1-8 mg/kg, time 21 day
[42] = Toxicity in nude mouse xenografted with human HCCLM3 cells assessed as lung damage at 1 to 8 mg/kg, PO in presence of sorafenib measured for 21 days by H and E staining based analysis; assay type: organism-based; conditions: in vivo, 504 h, dose 1-8 mg/kg, time 21 day

## CCCCCCCCCCCC[C@H](O)[C@@H]1CC[C@H]([C@H](O)CCCC[C@@H](O)CCCCC[C@@H](O)CC2=C[C@H](C)OC2=O)O1
HepG2 [1]
  IC50: 7.1 µM
Huh-7 [2]
  IC50: 7.1 µM
MHCC97H [3]
  IC50: 7.1 µM
HCCLM3 [4]
  IC50: 7.1 µM
HCCLM3 [5]
  inhibition: Active
HepG2 [6]
  Activity: 2.3
Huh-7 [7]
  Activity: 2.3
MHCC97H [8]
  Activity: 2.3
HCCLM3 [9]
  Activity: 2.3

## CCCCCCCCCCCC[C@H](O)[C@@H]1CC[C@H]([C@H](O)CCCCC(=O)CCCCC[C@@H](O)CC2=C[C@H](C)OC2=O)O1
HepG2 [1]
  IC50: 15 µM
Huh-7 [2]
  IC50: 15 µM
MHCC97H [3]
  IC50: 15 µM
HCCLM3 [4]
  IC50: 15 µM
HCCLM3 [5]
  inhibition: Active
HepG2 [6]
  Activity: 0.7
Huh-7 [7]
  Activity: 0.7
MHCC97H [8]
  Activity: 0.7
HCCLM3 [9]
  Activity: 0.7

## CCCCCCCCCCCC[C@@H](O)[C@H]1CC[C@H]([C@H](O)CCCC[C@@H](O)CCCCC[C@@H](O)CC2=C[C@H](C)OC2=O)O1
HepG2 [1]
  IC50: 7.4 µM
Huh-7 [2]
  IC50: 7.4 µM
MHCC97H [3]
  IC50: 7.4 µM
HCCLM3 [4]
  IC50: 7.4 µM
HCCLM3 [5]
  inhibition: Active
HepG2 [10]
  inhibition: Active
Huh-7 [11]
  inhibition: Active
MHCC97H [12]
  inhibition: Active
HCCLM3 [13]
  Activity: Active
HCCLM3 [14]
  Activity: 3.24%
HCCLM3 [15]
  Activity: 1.46%
HCCLM3 [16]
  Activity: 1.7%
HCCLM3 [17]
  viability at 4 µM: 93.6%
HCCLM3 [18]
  viability at 4 µM: 73.8%
HCCLM3 [19]
  Activity: 17.91%
HCCLM3 [20]
  Activity: 3.24%
HCCLM3 [21]
  Activity: 5.02%
HCCLM3 [22]
  Activity: 18.5%
HCCLM3 [23]
  Activity: Active
HCCLM3 [24]
  Activity: Active
HCCLM3 [25]
  Activity: Active
HCCLM3 [26]
  Activity: Active
HepG2 [27]
  inhibition: Active
Huh-7 [28]
  inhibition: Active
MHCC97H [29]
  inhibition: Active
HCCLM3 [30]
  inhibition: Active
[31]
  Activity: Non-Toxic
[32]
  Activity: Non-Toxic
[33]
  Activity: Non-Toxic
[34]
  Activity: Non-Toxic
[35]
  Activity: Non-Toxic
[36]
  Activity: Non-Toxic
[37]
  Activity: Non-Toxic
[38]
  Activity: Non-Toxic
[39]
  Activity: Non-Toxic
[40]
  Activity: Non-Toxic
[41]
  Activity: Non-Toxic
[42]
  Activity: Non-Toxic
HepG2 [6]
  Activity: 4.1
Huh-7 [7]
  Activity: 1.6
MHCC97H [8]
  Activity: 0.7
HCCLM3 [9]
  Activity: 12.1

## CCCCCCCCCCCC[C@@H](O)[C@H]1CC[C@H]([C@H](O)CCCC(O)CCCCCC[C@@H](O)CC2=C[C@H](C)OC2=O)O1 (some centres undefined)
HepG2 [1]
  IC50: 10 µM
Huh-7 [2]
  IC50: 10 µM
MHCC97H [3]
  IC50: 10 µM
HCCLM3 [4]
  IC50: 10 µM
HCCLM3 [5]
  inhibition: Active
HepG2 [6]
  Activity: 2
Huh-7 [7]
  Activity: 2
MHCC97H [8]
  Activity: 2
HCCLM3 [9]
  Activity: 2
